From patent US10045983B2, “Heteroaryl pyridone and aza-pyrodine compounds” (Genentech, Inc., priority 2011, dated 2018)

Experiment: CD69 Whole Blood Assay (CD69 Hu Blood FACS)
Assay type: cell-based, human
Conditions: Homo sapiens, Lymphocyte, read-out: CD69 Hu Blood FACS IC70 (μM)
How it was run: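 Compounds tested for blocking B-cell CD69 induction by flow cytometry in human whole blood, with activation via anti-human IgM goat F(ab′)2 crosslinking of surface IgM.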

`Cn1cc(-c2ccnc(N3CCn4c(cc5c4CCCC5)C3=O)c2CO)cc(Nc2ccc(N3[C@@H]4CC[C@H]3CN(C3COC3)C4)cn2)c1=O` [Example 152, 2-{3′-Hydroxymethyl-1-methyl-5-[5-((1 S,5R)-3-oxetan-3-yl-3,8-diaza-bicyclo[3.2.1]oct-8-yl)-pyridin-2-ylamino]-6-oxo-1,6-dihydro-[3,4′]bipyridinyl-2′-yl}-3,4,6,7,8,9-hexahydro-2H-pyrazino[1,2-a]indol-1-one] gave an IC70 of 0.188 µM.

Same assay, conditions: Lymphocyte; human whole blood, anti-IgM activated B lymphocytes, FACS; IC70; Table 1; read-out: CD69 Hu Blood FACS IC70

Going from `C[C@H]1CN(C2COC2)CCN1c1ccc(Nc2cc(-c3ccnc(N4CCn5c(cc6c5CC(C)(C)C6)C4=O)c3CO)cn(C)c2=O)nc1` [Example 130, (3 S)-10-[4-[1-methyl-5-({5-[2-methyl 4-(oxetan-3-yl)piperazin-1-yl]pyridine-2-yl}amino)-6-oxo-1,6-dihydropyridin-3-yl]-3-(hydroxymethyl)pyridin-2-yl]-4,4-dimethyl-1,10-diazatricyclo[6.4.0.0^2,6]dodeca-2(6),7-dien-9-one] to `C[C@H]1CN(C2COC2)CCN1c1ccc(Nc2cc(-c3ccnc(N4CCn5c(cc6c5[C@H]5CC[C@@H]6C5)C4=O)c3CO)cn(C)c2=O)nc1` [Example 171, (S)-2-(3-(hydroxymethyl)-4-(1-methyl-5-(5-(2-methyl-4-(oxetan-3-yl)piperazin-1-yl)pyridin-2-ylamino)-6-oxo-1,6-dihydropyridin-3-yl)pyridin-2-yl)-3,4,6,7,8,9-hexahydro-6,9-methanopyrazino[1,2-a]indol-1(2H)-one], the IC70 rises from 0.012 µM to 0.036 µM (3-fold).

`Cn1cc(-c2ccnc(N3CCn4c(cc5c4CCCC5)C3=O)c2CO)cc(Nc2cc3n(n2)CCN(C2COC2)C3)c1=O` [Example 125, 2-(3-(Hydroxymethyl)-4-(1-methyl-5-(5-(oxetan-3-yl)-4,5,6,7-tetrahydropyrazolo[1,5-a]pyrazin-2-ylamino)-6-oxo-1,6-dihydropyridin-3-yl)pyridin-2-yl)-3,4,6,7,8,9-hexahydropyrazino[1,2-a]indol-1(2H)-one] and `CN1CCn2nc(Nc3cc(-c4ccnc(N5CCn6c(cc7c6CCCC7)C5=O)c4CO)cn(C)c3=O)cc2C1` [Example 113, 2-(3-(Hydroxymethyl)-4-(1-methyl-5-(5-methyl-4,5,6,7-tetrahydropyrazolo[1,5-a]pyrazin-2-ylamino)-6-oxo-1,6-dihydropyridin-3-yl)pyridin-2-yl)-3,4,6,7,8,9-hexahydropyrazino[1,2-a]indol-1(2H)-one] are within 1.5-fold of each other in IC70: 0.0873 µM for the first, 0.0625 µM for the second.

First: Cn1cc(-c2ccnc(N3CCn4c(cc5c4CCCC5)C3=O)c2CO)cc(Nc2cc3n(n2)CCOC3)c1=O [Example 129, 2-(4-(5-(6,7-Dihydro-4H-pyrazolo[5,1-c][1,4]oxazin-2-ylamino)-1-methyl-6-oxo-1,6-dihydropyridin-3-yl)-3-(hydroxymethyl)pyridin-2-yl)-3,4,6,7,8,9-hexahydropyrazino[1,2-a]indol-1(2H)-one]
Second: Cc1cc(Nc2cc(-c3ccnc(N4CCn5c(cc6c5CCCC6)C4=O)c3CO)cn(C)c2=O)n[nH]1 [Example 115, 2-(3-(Hydroxymethyl)-4-(1-methyl-5-(5-methyl-1H-pyrazol-3-ylamino)-6-oxo-1,6-dihydropyridin-3-yl)pyridin-2-yl)-3,4,6,7,8,9-hexahydropyrazino[1,2-a]indol-1(2H)-one]
The IC70 of the first is 3.1-fold lower: 0.0917 µM for the first, 0.286 µM for the second.

`C[C@H]1CN(C2COC2)CCN1c1ccc(Nc2cc(-c3ccnc(-n4ccn5c6c(cc5c4=O)CCCC6)c3CO)cn(C)c2=O)nc1` [Example 176, (S)-2-(3-(hydroxymethyl)-4-(1-methyl-5-(5-(2-methyl-4-(oxetan-3-yl)piperazin-1-yl)pyridin-2-ylamino)-6-oxo-1,6-dihydropyridin-3-yl)pyridin-2-yl)-6,7,8,9-tetrahydropyrazino[1,2-a]indol-1(2H)-one] and `Cn1cc(-c2ccnc(N3CCc4c(sc5c4CC(C)(C)C5)C3=O)c2CO)cc(Nc2ccc(N3CCN(C4COC4)CC3)cn2)c1=O` [Example 109, 2-(3-(Hydroxymethyl)-4-(1-methyl-5-(5-(4-(oxetan-3-yl)piperazin-1-yl)pyridin-2-ylamino)-6-oxo-1,6-dihydropyridin-3-yl)pyridin-2-yl)-4,4-dimethyl-7-thia-10-azatricyclo[6.4.0.0^2,6]dodeca-1(8),2(6)-dien-9-one] are within 1.5-fold of each other in IC70: 0.0375 µM for the first, 0.0501 µM for the second.

Compared with `Cn1cc(-c2ccnc(N3CCn4c(cc5c4CCCC5)C3=O)c2CO)cc(Nc2ccncn2)c1=O` [Example 142, 2-[3′-Hydroxymethyl-1-methyl-6-oxo-5-(pyrimidin-4-ylamino)-1,6-dihydro-[3,4′]bipyridinyl-2′-yl]-3,4,6,7,8,9-hexahydro-2H-pyrazino[1,2-a]indol-1-one], `Cn1cc(-c2cncc(N3CCc4c(sc5c4CC(C)(C)C5)C3=O)c2CO)cc(Nc2ccc(N3CCN(C4COC4)CC3)cn2)c1=O` [Example 106] is 36-fold lower in IC70: 2.1 µM for the first, 0.0576 µM for the second.

Same assay, conditions: Lymphocyte; human whole blood, anti-IgM activated B lymphocytes, FACS; IC70; Table 2 (unit inferred); read-out: CD69 Hu Blood FACS (IC70)

Compared with `Cc1nn(C)c2cnc(Nc3cc(-c4ccnc(N5CCn6c(cc7c6CC(C)(C)C7)C5=O)c4CO)cn(C)c3=O)cc12` [Example 325, 3-[4-[5-[(1,3-dimethylpyrazolo[3,4-c]pyridin-5-yl)amino]-1-methyl-6-oxo-3-pyridyl]-3-(hydroxymethyl)-2-pyridyl]-7,7-dimethyl-1,2,6,8-tetrahydrocyclopenta[3,4]pyrrolo[3,5-b]pyrazin-4-one], `Cn1cc(-c2ccnc(N3CCn4c(cc5c4CC(C)(C)C5)C3=O)c2CO)cc(Nc2cc[nH]n2)c1=O` [Example 289, 3-[3-(hydroxymethyl)-4-[1-methyl-6-oxo-5-(1H-pyrazol-3-ylamino)-3-pyridyl]-2-pyridyl]-7,7-dimethyl-1,2,6,8-tetrahydrocyclopenta[3,4]pyrrolo[3,5-b]pyrazin-4-one] is 6.5-fold lower in IC70: 1.4 µM for the first, 0.214 µM for the second.

Compared with `CN1CC(c2ccc(Nc3cc(-c4ccnc(N5CCn6c(cc7c6CC(C)(C)C7)C5=O)c4CO)cn(C)c3=O)nc2)C1` [Example 240, 3-[3-(hydroxymethyl)-4-[1-methyl-5-[[5-(1-methylazetidin-3-yl)-2-pyridyl]amino]-6-oxo-3-pyridyl]-2-pyridyl]-7,7-dimethyl-1,2,6,8-tetrahydrocyclopenta[3,4]pyrrolo[3,5-b]pyrazin-4-one], `CC(=O)N1CCn2nc(Nc3cc(-c4ccnc(N5CCn6c(cc7c6CC(C)(C)C7)C5=O)c4CO)cn(C)c3=O)cc2C1` [Example 212, 3-[4-[5-[(5-acetyl-6,7-dihydro-4H-pyrazolo[1,5-a]pyrazin-2-yl)amino]-1-methyl-6-oxo-3-pyridyl]-3-(hydroxymethyl)-2-pyridyl]-7,7-dimethyl-1,2,6,8-tetrahydrocyclopenta[3,4]pyrrolo[3,5-b]pyrazin-4-one] is 1.5-fold lower in IC70: 0.0229 µM for the first, 0.0152 µM for the second.

Compared with `Cn1nc(-c2ccnc(N3CCn4c(cc5c4CCCC5)C3=O)c2CO)cc(Nc2ccc(C(=O)N3CCOCC3)cn2)c1=O` [Example 227, 2-[3-(hydroxymethyl)-4-[1-methyl-5-[[5-(morpholine-4-carbonyl)-2-pyridyl]amino]-6-oxo-pyridazin-3-yl]-2-pyridyl]-3,4,6,7,8,9-hexahydropyrazino[1,2-a]indol-1-one], `C[C@H]1COCCN1C(=O)c1ccc(Nc2cc(-c3ccnc(N4CCn5c(cc6c5CC(C)(C)C6)C4=O)c3CO)nn(C)c2=O)nc1` [Example 256, 3-[3-(hydroxymethyl)-4-[1-methyl-5-[[5-[(3 S)-3-methylmorpholine-4-carbonyl]-2-pyridyl]amino]-6-oxo-pyridazin-3-yl]-2-pyridyl]-7,7-dimethyl-1,2,6,8-tetrahydrocyclopenta[3,4]pyrrolo[3,5-b]pyrazin-4-one] is 9.1-fold lower in IC70: 0.73 µM for the first, 0.08 µM for the second.

First: CN1CCn2nc(Nc3cc(-c4ccnc(-n5ncc6c7n(cc6c5=O)CCCC7)c4CO)cn(C)c3=O)cc2C1 [Example 202, 3-[3-(hydroxymethyl)-4-[1-methyl-5-[(5-methyl-6,7-dihydro-4H-pyrazolo[1,5-a]pyrazin-2-yl)amino]-6-oxo-3-pyridyl]-2-pyridyl]-7,8,9,10-tetrahydropyridazino[4,5-a]indolizin-4-one]
Second: Cc1cc(Nc2cc(-c3ccnc(N4CCc5c(cc6n5CCCC6)C4=O)c3CO)cn(C)c2=O)nn1C [Example 242, 2-[4-[5-[(1,5-dimethylpyrazol-3-yl)amino]-1-methyl-6-oxo-3-pyridyl]-3-(hydroxymethyl)-2-pyridyl]-3,4,6,7,8,9-hexahydropyrido[3,4-b]indolizin-1-one]
The IC70 of the first is 6.1-fold higher: 7.3 µM for the first, 1.2 µM for the second.

First: COCc1cc(Nc2cc(-c3ccnc(N4CCc5c(cc6n5CCCC6)C4=O)c3CO)cn(C)c2=O)nn1C [Example 336, 2-[3-(hydroxymethyl)-4-[5-[[5-(methoxymethyl)-1-methyl-pyrazol-3-yl]amino]-1-methyl-6-oxo-3-pyridyl]-2-pyridyl]-3,4,6,7,8,9-hexahydropyrido[3,4-b]indolizin-1-one]
Second: COC[C@H](C)N1CCn2nc(Nc3cc(-c4ccnc(N5CCn6c(cc7c6CC(C)(C)C7)C5=O)c4CO)cn(C)c3=O)cc2C1 (single isomer, unassigned) [Example 303]
The IC70 of the first is 18-fold higher: 0.33 µM for the first, 0.0179 µM for the second.

First: C[C@H]1CN(C2COC2)CCN1c1ccc(Nc2cc(-c3ccnc(-n4ncc5c6c(sc5c4=O)CCCC6)c3CO)cn(C)c2=O)nc1 [Example 191, 5-[3-(Hydroxymethyl)-4-[1-methyl-5-({5-[(2S)-2-methyl-4-(oxetan-3-yl)pipera-zin-1-yl]pyridin-2-yl}amino)-6-oxo-1,6-dihydropyridin-3-yl]pyridin-2-yl]-8-thia-4,5-diazatricyclo[7.4.0.0^2,7]trideca-1(9),2(7),3-trien-6-one]
Second: Cn1cc(-c2ccnc(N3CCn4c(cc5c4CC(C)(C)C5)C3=O)c2CO)nc(Nc2cccc(N)c2)c1=O [Example 219, 3-[4-[6-(3-aminoanilino)-4-methyl-5-oxo-pyrazin-2-yl]-3-(hydroxymethyl)-2-pyridyl]-7,7-dimethyl-1,2,6,8-tetrahydrocyclopenta[3,4]pyrrolo[3,5-b]pyrazin-4-one]
The IC70 of the first is 4.7-fold lower: 0.0435 µM for the first, 0.204 µM for the second.
